According to patent US8722849B2, “Polypeptides” (Novo Nordisk A/S, priority 2011, dated 2014):
In brackets after ≈: the same amount, converted by molar mass. Like-named read-outs stand apart in the source and are kept apart here. Starred links: 1 amine or outer side, 2 acyl side, 3 side chain; linkers in the order of their positions; H or OH if unused. Positions of bridges follow the written chain, without caps; N, C: chain ends. Residues, ends and D or L forms follow the SMILES beside them. *: point of attachment. C20 diacid = O=C(O)CCCCCCCCCCCCCCCCCCC(=O)*; γGlu = O=C(O)[C@H](CCC(=O)[*:2])N[*:1]

Assays:
[1] = Assay (IX) pK, determination of T½ in mini-pig; format: in vivo, Göttingen mini-pigs; conditions: male, Göttingen, iv, 2 nmol/kg; minipig; plasma terminal half-life
[2] = target: T1, human calcitonin receptor (Homo sapiens, UniProt P30988); assay: Assay (II)a functional CRE-luciferase assay, human calcitonin receptor; format: cell-based; conditions: Table 7; human calcitonin (CTa) receptor
T1 construct: expressed in transfected cells; host or cells: BHK570
T1 sequence (P30988 25-474): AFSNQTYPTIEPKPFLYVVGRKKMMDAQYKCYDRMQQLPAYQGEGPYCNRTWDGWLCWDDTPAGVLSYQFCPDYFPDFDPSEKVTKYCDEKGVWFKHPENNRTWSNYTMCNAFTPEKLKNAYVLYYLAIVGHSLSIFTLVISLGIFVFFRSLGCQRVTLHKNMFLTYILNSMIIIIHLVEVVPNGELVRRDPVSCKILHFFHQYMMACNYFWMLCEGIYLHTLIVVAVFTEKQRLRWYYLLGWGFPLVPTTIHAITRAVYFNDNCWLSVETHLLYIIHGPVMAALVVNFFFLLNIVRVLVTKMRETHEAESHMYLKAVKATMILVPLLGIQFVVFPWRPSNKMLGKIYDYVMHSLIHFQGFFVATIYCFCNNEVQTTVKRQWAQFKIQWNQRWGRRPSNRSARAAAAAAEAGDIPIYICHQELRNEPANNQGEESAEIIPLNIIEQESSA

[3] = target: T2, rat amylin 3(a) receptor (rat calcitonin(a) receptor + rat RAMP3) (Rattus norvegicus, UniProt P32214+Q9JJ73); assay: Assay (II)b functional cAMP FlashPlate assay, rat amylin receptor; format: cell-based; conditions: Table 11
T2 construct: expressed in transfected cells; host or cells: BHK tk'ts 13
T2 sequence (P32214 25-479 isoform P32214-2 limits assumed): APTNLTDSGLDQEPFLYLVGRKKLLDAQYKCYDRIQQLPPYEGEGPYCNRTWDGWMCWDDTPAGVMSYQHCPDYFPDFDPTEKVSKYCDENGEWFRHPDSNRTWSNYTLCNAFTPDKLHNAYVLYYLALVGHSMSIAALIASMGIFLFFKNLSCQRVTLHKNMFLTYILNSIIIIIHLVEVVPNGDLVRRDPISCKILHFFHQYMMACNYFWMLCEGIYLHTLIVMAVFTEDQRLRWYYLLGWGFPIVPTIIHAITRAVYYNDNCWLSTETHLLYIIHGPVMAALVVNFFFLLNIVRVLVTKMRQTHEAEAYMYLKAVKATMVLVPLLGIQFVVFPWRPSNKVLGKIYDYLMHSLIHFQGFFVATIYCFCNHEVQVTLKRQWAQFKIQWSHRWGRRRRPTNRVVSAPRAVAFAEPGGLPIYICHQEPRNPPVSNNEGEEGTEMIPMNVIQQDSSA
T2 sequence (Q9JJ73 23-147 partner): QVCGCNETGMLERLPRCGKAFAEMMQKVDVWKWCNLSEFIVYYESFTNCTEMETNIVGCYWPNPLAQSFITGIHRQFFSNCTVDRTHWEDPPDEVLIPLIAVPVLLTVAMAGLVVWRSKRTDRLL
How it was run: (§1)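 BHK tk'ts 13 cells transiently transfected with rat calcitonin(a) receptor, alone or with rat RAMP3 (amylin 3(a)), were stimulated 24 hours later with sample for 30 min in buffer containing IBMX. cAMP measured by competitive radioactive FlashPlate assay, scintillation read after 3 h detection incubation.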

[4] = target: T3, rat calcitonin (a) receptor (Rattus norvegicus, UniProt P32214); assay: Assay (II)b functional cAMP FlashPlate assay, rat calcitonin receptor; format: cell-based; conditions: Table 11; read-out: CTa receptor rat EC50
T3 construct: expressed in transfected cells; host or cells: BHK tk'ts 13
T3 sequence (P32214 25-479 isoform P32214-2 limits assumed): T2 sequence (P32214 25-479 isoform P32214-2 limits assumed)
How it was run: as §1

[5] = Assay (IV) determination of solubility; format: physicochemical
How it was run: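 Polypeptide in water (~500 nmol/ml) mixed 1:1 with 100 mM glycylglycine (pH 3.0–5.0) or bistrispropane (pH 6.0–8.0) buffers. Held 18 hours at room temperature, then centrifuged. Polypeptide remaining in solution quantified by HPLC.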

[6] = target: T4, human amylin receptor (amylin 3(a) receptor: human calcitonin receptor + RAMP-3) (Homo sapiens, UniProt O60896+P30988); assay: Assay (II)a functional CRE-luciferase assay, human amylin receptor; format: cell-based; conditions: Table 2; BHK amylin 3(a)-receptor/CRE-luc cells
T4 construct: expressed in transfected cells; host or cells: BHK570
T4 sequence (P30988 25-474): T1 sequence (P30988 25-474)
T4 sequence (O60896 24-148 partner): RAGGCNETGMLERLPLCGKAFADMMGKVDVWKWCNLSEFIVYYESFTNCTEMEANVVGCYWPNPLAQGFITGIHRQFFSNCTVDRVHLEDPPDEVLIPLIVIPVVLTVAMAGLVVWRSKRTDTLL

[7] = bistrispropane buffer, pH 6, pH 6.0, read-out: Solubility pH 6.0
[8] = bistrispropane buffer, pH 6.5, pH 6.5, read-out: Solubility pH 6.5
[9] = bistrispropane buffer, pH 7, pH 7.0, read-out: Solubility pH 7.0
[10] = bistrispropane buffer, pH 7.5, pH 7.5, read-out: Solubility pH 7.5
[11] = bistrispropane buffer, pH 8, pH 8.0, read-out: Solubility pH 8.0
[12] = glycylglycine buffer, pH 3, pH 3.0, read-out: Solubility pH 3.0
[13] = glycylglycine buffer, pH 4, pH 4.0, 18 hours at room temperature, Table 2, read-out: Solubility pH 4.0
[14] = glycylglycine buffer, pH 4, pH 4.0, read-out: Solubility pH 4.0
[15] = glycylglycine buffer, pH 5, pH 5.0, read-out: Solubility pH 5.0

Row | SMILES | half-life [1] [h] | EC50 [2] [pM] | EC50 [3] [pM] | EC50 [4] [pM] | solubility at 18 h [5, 7] [µM] | solubility at 18 h [5, 8] [µM] | solubility at 18 h [5, 9] [µM] | solubility at 18 h [5, 10] [µM] | solubility at 18 h [5, 11] [µM] | solubility at 18 h [5, 12] [µM] | solubility at 18 h [5, 13] [µM] | solubility at 18 h [5, 14] [µM] | solubility at 18 h [5, 15] [µM] | EC50 [6] [pM] | solubility at 18 h ([5]; bistrispropane buffer, pH 7, pH 7.0, 18 hours at room temperature, Table 3, read-out: Solubility pH 7.0) [µM] | solubility at 18 h ([5]; bistrispropane buffer, pH 7, pH 7.0, Table 8, read-out: Solubility pH 7.0) [µM]
1 | CC[C@H](C)[C@H](NC(=O)[C@@H]1CCCN1C(=O)CNC(=O)[C@H](Cc1ccccc1)NC(=O)[C@H](CC(N)=O)NC(=O)[C@H](CC(N)=O)NC(=O)[C@H](CO)NC(=O)[C@H](CO)NC(=O)[C@H](Cc1cnc[nH]1)NC(=O)[C@H](Cc1cnc[nH]1)NC(=O)[C@H](CC(C)C)NC(=O)[C@H](Cc1ccccc1)NC(=O)[C@H](CCC(=O)O)NC(=O)[C@H](C)NC(=O)[C@H](CC(C)C)NC(=O)[C@H](CCCNC(=N)N)NC(=O)[C@H](CCC(N)=O)NC(=O)[C@@H](NC(=O)[C@H](C)NC(=O)[C@@H]1CSSC[C@H](NC(=O)[C@H](Cc2cnc[nH]2)NC(=O)[C@H](Cc2cnc[nH]2)NC(=O)[C@H](Cc2cnc[nH]2)NC(=O)CC[C@H](NC(=O)CCCCCCCCCCCCCCCCCCC(=O)O)C(=O)O)C(=O)N[C@@H](CC(N)=O)C(=O)N[C@@H]([C@@H](C)O)C(=O)N[C@@H](C)C(=O)N[C@@H]([C@@H](C)O)C(=O)N1)[C@@H](C)O)C(=O)N[C@@H](CC(C)C)C(=O)N1CCC[C@H]1C(=O)N1CCC[C@H]1C(=O)N[C@H](C(=O)N[C@@H](CC(N)=O)C(=O)N[C@H](C(=O)NCC(=O)N[C@@H](CO)C(=O)N[C@@H](CC(N)=O)C(=O)N[C@H](C(=O)N[C@@H](Cc1ccc(O)cc1)C(N)=O)[C@@H](C)O)C(C)C)[C@@H](C)O [Example 11, N-alpha-[(S)-4-Carboxy-4-(19-carboxynonadecanoylamino)butyryl]-His-His-[His1,Glu14,His17]-pramlintide] ({C20 diacid-γGlu}-HHHCNTATCATQRLAEFLHHSSNNFGPILPPTNVGSNTY-NH2; disulfide 4-9) | 106 | 208 | 88.5 | 962 | > 200 | 44 (≈ 209 µg/mL) | 29 (≈ 137 µg/mL) | 157 (≈ 744 µg/mL) | > 200 | > 200 | > 200 | > 200 | > 200 | 85.3 | – | –
2 | CC[C@H](C)[C@H](NC(=O)[C@@H]1CCCN1C(=O)CNC(=O)[C@H](Cc1ccccc1)NC(=O)[C@H](CC(N)=O)NC(=O)[C@H](CC(N)=O)NC(=O)[C@H](CO)NC(=O)[C@H](CO)NC(=O)[C@H](Cc1c[nH]cn1)NC(=O)[C@H](Cc1cnc[nH]1)NC(=O)[C@H](CC(C)C)NC(=O)[C@H](Cc1ccccc1)NC(=O)[C@H](CCC(=O)O)NC(=O)[C@H](C)NC(=O)[C@H](CC(C)C)NC(=O)[C@H](CCCNC(=N)N)NC(=O)[C@H](CCC(N)=O)NC(=O)[C@@H](NC(=O)[C@H](C)NC(=O)[C@@H]1CSSC[C@H](NC(=O)[C@H](Cc2cnc[nH]2)NC(=O)CC[C@H](NC(=O)CCCCCCCCCCCCCCCCCCC(=O)O)C(=O)O)C(=O)N[C@@H](CC(N)=O)C(=O)N[C@@H]([C@@H](C)O)C(=O)N[C@@H](C)C(=O)N[C@@H]([C@@H](C)O)C(=O)N1)[C@@H](C)O)C(=O)N[C@@H](CC(C)C)C(=O)N1CCC[C@H]1C(=O)N1CCC[C@H]1C(=O)N[C@H](C(=O)N[C@@H](CC(N)=O)C(=O)N[C@H](C(=O)NCC(=O)N[C@@H](CO)C(=O)N[C@@H](CC(N)=O)C(=O)N[C@H](C(=O)N1CCC[C@H]1C(N)=O)[C@@H](C)O)C(C)C)[C@@H](C)O [Example 84, N-alpha-[(S)-4-Carboxy-4-(19-carboxynonadecanoylamino)butyryl]-[His1,Glu14,His17,Pro37]-pramlintide] ({C20 diacid-γGlu}-HCNTATCATQRLAEFLHHSSNNFGPILPPTNVGSNTP-NH2; disulfide 2-7) | – | 67 | 121 | 109 | > 200 | > 200 | > 200 | > 200 | > 200 | > 200 | > 200 | > 200 | > 200 | 92.5 | > 200 | > 200
